This is an account of results in ChEMBL document CHEMBL3706492, “CYP3A4-mediated hepatic metabolism of the HIV-1 protease inhibitor saquinavir in vitro” (Xenobiotica, 2002).

What all share (conditions): human, microsomes
Data set [1] is described as follows: (§1) Fraction of total metabolites recovered as M10. Type of data set: ADME, Small intestine, Microsome.
Data set [2] can be described thus: as §1. Type of data set: ADME, Liver, Microsome.
Data set [3] in a line: (§2) Fraction of total metabolites recovered as M4. Type of data set: ADME, Small intestine, Microsome.
Data set [4] can be described thus: as §2. Type of data set: ADME, Liver, Microsome.

The structures appear in SMILES notation.

Turning to `CC(C)(CO)NC(=O)[C@@H]1C[C@@H]2CCCC[C@@H]2CN1C[C@@H](O)[C@H](Cc1ccccc1)NC(=O)[C@H](CC(N)=O)NC(=O)c1ccc2ccccc2n1`, the Compound recovery in data set [1] and in data set [2] was 6% each time.
Take `CC(C)(C)NC(=O)[C@@H]1C[C@@H]2C[C@@H](O)CC[C@@H]2CN1C[C@@H](O)[C@H](Cc1ccccc1)NC(=O)[C@H](CC(N)=O)NC(=O)c1ccc2ccccc2n1`: the Compound recovery in data set [3] and in data set [4] was 21% in each case.
